Experimental findings from ChEMBL document CHEMBL1201862, “PubChem BioAssay data set” (2004) are described below.

For test [1], the target named is Genome polyprotein (dengue virus type 2, UniProt P29990). The test is described as follows: flavivirus cap methylation enzyme inhibition – biochemical, confirmation dose response, primary screen (AID 588689). It counts as functional.
The target of test [2] is Beta-arrestin-1 (Homo sapiens, UniProt P49407). The test is described as follows: beta-arrestin/AP2 interaction blockers, potency – biochemical, cherry pick 1, beta2-adaptin appendage, flow cytometry, dose response (AID 588783). It counts as functional. Background: Flow cytometry measures light scatter and fluorescence of single cells or particles in a stream.
Sequence of Beta-arrestin-1 (P49407 whole entry): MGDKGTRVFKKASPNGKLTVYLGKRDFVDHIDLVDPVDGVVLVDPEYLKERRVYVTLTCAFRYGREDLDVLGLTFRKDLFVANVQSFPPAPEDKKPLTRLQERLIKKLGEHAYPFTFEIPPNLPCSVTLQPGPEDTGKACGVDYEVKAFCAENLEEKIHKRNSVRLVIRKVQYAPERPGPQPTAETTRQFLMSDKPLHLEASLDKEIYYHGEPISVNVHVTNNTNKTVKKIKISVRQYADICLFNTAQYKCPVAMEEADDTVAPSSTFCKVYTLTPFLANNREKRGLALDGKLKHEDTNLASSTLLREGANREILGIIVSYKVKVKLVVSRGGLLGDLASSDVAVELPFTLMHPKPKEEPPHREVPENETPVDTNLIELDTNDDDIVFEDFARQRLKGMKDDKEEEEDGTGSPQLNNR
Test [3] has as its target Tyrosyl-DNA phosphodiesterase 2 (Homo sapiens, UniProt O95551). The test is described as follows: potency against TDP2 phosphodiesterase activity – biochemical, epi absorbance, IC50, dose response (AID 743297).
Test [4] has as its target Induced myeloid leukemia cell differentiation protein Mcl-1 (Homo sapiens, UniProt Q07820). The format is functional.
Test [5] in a line: viability loss in THP-1 monocytes – THP-1 cells, cytotoxicity control for Vif-APOBEC3G degradation inhibitor project, dose response (AID 1117359). It counts as functional. Particulars: THP-1.
Test [6] addresses Cystic fibrosis transmembrane conductance regulator/Golgi-associated PDZ and coiled-coil motif-containing protein (Homo sapiens, UniProt P13569+Q9HD26). The test is described as follows: potency against CAL PDZ-peptide interaction – biochemical, fluorescence polarization, Cerulean-tagged CAL PDZ, cherry-picks, dose response (AID 504773).
Test [7] deals with INS1. The test is described as follows: INS-1E survival protection against cytokine death – cell-based, luminescence, retest, dose response (AID 449756).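 Also: cell death triggered by IL-1 beta plus TNF-alpha plus IFN-gamma mixture; protective hits raise ATP signal compared with cytokine alone wells.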 Particulars: Rattus norvegicus. The format is functional.
Test [8] deals with Nonstructural protein 1 (Influenza A virus, UniProt Q194T2). It counts as functional, Influenza A virus (A/California/07/2009(H1N1)).
Sequence of Nonstructural protein 1 (Q194T2 whole entry): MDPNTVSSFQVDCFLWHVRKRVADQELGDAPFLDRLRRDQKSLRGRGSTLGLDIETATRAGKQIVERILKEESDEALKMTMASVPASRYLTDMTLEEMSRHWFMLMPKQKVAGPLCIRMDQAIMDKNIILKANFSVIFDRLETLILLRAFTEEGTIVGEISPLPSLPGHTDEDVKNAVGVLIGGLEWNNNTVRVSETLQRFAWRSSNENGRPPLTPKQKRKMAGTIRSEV
Test [9] has as its target Beta-galactosidase (Escherichia coli, UniProt Q8VNN2). The test is described as follows: detection-enzyme interference by beta-gal modulators – biochemical, E. coli enzyme, set 3, artefact control for CCR6 antagonist project, dose response (AID 504712). It counts as functional.

The source made the active and inactive calls.

Sequence of Beta-galactosidase (Q8VNN2 whole entry): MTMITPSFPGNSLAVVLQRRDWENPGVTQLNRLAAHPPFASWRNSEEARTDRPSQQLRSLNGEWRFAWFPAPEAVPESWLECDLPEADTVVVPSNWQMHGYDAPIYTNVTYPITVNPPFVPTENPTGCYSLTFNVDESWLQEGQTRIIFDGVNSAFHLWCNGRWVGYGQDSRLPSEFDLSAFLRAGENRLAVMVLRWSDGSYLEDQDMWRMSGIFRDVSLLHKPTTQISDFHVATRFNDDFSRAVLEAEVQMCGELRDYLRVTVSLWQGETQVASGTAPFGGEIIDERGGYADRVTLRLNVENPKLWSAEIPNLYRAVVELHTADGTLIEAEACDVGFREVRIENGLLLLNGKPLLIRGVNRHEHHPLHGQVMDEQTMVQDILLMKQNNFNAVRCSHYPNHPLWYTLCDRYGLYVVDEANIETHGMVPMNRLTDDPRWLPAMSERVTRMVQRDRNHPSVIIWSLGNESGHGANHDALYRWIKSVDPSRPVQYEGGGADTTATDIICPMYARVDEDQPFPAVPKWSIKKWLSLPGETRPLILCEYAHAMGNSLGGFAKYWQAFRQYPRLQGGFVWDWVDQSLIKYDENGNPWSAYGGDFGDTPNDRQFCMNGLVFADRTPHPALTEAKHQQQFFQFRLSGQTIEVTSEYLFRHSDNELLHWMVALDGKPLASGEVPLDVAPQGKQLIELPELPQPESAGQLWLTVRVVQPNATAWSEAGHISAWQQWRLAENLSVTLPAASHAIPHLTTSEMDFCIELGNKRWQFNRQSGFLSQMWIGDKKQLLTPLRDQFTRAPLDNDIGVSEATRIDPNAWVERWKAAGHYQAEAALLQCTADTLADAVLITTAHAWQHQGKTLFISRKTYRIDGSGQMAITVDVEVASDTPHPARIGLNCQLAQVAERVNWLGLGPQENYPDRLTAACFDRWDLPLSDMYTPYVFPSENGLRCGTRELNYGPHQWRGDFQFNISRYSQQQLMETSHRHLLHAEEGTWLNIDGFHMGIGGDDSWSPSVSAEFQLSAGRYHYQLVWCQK
Sequence of Cystic fibrosis transmembrane conductance regulator/Golgi-associated PDZ and coiled-coil motif-containing protein (P13569 whole entry, other chains not shown): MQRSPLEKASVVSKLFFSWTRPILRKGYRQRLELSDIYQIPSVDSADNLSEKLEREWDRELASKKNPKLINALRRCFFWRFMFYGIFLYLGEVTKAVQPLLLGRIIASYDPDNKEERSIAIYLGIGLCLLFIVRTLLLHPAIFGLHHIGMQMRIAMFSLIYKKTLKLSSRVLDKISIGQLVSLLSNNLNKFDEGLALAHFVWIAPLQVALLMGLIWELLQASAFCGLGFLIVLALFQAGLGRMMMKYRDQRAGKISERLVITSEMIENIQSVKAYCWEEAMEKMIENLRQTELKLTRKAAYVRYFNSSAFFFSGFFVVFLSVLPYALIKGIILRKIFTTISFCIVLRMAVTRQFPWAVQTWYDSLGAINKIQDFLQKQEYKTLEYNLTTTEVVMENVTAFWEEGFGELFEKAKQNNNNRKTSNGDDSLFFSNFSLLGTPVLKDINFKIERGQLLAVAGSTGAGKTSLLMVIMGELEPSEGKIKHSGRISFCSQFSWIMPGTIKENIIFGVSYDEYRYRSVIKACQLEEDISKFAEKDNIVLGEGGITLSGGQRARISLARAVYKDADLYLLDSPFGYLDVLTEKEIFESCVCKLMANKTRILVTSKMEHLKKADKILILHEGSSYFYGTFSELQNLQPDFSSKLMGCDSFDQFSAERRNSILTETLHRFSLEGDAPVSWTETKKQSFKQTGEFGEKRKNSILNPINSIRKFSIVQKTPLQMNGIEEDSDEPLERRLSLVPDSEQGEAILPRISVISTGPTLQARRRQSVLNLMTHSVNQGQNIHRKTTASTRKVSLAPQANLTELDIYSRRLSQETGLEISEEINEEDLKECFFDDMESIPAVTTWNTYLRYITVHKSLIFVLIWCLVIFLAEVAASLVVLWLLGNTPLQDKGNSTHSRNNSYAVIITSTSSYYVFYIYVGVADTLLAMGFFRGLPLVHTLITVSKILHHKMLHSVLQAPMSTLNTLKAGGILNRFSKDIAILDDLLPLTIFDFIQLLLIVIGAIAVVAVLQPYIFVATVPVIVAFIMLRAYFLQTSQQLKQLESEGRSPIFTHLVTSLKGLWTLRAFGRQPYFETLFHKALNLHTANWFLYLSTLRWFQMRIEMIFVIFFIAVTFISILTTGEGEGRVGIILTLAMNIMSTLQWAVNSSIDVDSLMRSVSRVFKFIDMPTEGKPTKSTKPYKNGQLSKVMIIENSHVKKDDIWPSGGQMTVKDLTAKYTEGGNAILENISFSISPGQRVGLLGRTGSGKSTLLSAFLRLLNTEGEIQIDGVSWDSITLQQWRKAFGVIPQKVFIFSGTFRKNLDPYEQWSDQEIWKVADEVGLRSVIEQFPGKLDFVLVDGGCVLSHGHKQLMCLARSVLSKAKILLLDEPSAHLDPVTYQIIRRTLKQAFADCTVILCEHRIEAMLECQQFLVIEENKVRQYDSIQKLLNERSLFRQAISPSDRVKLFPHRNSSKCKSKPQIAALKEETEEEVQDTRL
Sequence of Genome polyprotein (P29990 2492-3391 limits assumed): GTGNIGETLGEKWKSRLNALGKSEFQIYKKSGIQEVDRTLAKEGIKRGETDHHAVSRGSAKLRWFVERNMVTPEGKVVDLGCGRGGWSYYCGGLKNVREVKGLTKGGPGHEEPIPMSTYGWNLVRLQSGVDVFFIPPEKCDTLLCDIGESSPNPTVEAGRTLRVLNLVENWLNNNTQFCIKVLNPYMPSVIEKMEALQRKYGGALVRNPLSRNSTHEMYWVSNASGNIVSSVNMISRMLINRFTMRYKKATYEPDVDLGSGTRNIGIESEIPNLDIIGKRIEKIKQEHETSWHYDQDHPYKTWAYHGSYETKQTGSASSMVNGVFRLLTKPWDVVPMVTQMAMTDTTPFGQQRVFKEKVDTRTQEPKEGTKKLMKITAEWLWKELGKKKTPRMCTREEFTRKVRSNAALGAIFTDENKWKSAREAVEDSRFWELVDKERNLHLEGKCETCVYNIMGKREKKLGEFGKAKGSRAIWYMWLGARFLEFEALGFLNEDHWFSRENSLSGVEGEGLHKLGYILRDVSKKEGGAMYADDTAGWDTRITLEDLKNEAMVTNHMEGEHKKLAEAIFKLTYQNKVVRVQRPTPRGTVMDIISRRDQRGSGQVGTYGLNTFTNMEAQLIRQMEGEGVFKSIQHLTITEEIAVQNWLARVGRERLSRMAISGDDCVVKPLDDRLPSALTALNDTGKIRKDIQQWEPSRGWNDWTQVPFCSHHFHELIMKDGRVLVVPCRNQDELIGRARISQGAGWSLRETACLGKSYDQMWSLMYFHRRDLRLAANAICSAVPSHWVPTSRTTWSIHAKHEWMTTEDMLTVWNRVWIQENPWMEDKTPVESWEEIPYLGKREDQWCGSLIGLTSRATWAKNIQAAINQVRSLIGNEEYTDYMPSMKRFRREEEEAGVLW
Sequence of Tyrosyl-DNA phosphodiesterase 2 (O95551 whole entry): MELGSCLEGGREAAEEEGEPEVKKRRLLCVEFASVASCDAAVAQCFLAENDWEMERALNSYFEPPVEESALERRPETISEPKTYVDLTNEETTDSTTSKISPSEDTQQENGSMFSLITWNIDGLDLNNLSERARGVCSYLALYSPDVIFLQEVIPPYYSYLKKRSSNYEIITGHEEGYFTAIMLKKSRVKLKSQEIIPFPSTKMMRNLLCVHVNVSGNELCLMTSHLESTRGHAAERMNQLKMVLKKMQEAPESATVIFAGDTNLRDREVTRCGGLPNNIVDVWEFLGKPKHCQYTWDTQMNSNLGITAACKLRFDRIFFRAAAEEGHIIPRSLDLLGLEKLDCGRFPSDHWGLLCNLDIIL
Sequence of Induced myeloid leukemia cell differentiation protein Mcl-1 (Q07820 whole entry): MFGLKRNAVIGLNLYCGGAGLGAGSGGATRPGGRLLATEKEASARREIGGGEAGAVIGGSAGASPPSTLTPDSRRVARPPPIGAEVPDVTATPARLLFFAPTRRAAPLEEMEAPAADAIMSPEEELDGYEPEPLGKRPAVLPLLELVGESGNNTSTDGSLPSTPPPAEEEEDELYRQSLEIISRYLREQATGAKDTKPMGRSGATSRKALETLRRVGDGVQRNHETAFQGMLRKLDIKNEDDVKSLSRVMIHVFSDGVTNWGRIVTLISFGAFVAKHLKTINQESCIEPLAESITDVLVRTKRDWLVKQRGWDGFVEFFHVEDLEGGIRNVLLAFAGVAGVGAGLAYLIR

Take `NC(=O)C1CCN(C2=C(Cl)C(=O)c3ccccc3C2=O)CC1`: the IC50 – broadly, the concentration that gives 50% inhibition – in test [1] is 26 µM (active); in test [2] it was 22.2 µM (inactive); in test [3], 13.6 µM (inactive); in test [4], > 54 µM (not active). In addition, in test [5], the CC50 – broadly, the concentration at which the toxic effect on the cells reaches its halfway point – was 9.71 µM (active).

On to `O=c1c2ccccc2nc(/C=C/c2cccnc2)n1Cc1ccccc1`, for which, in [6], the AC50 (as a rule, the concentration giving half of the maximal activity seen) is 23.5 µM (active).

Turning to `COC(=O)c1ccccc1NC1=C/C(=N\S(=O)(=O)c2ccc(C(=O)O)cc2)c2ccccc2C1=O`, in test [7], the AC50 is 3.34 µM (active). The IC50 in test [8] is 31.8 µM (active); in test [9] it was > 66.6 µM (inactive).
